The text below walks through data of patent US7754741B2, “Pyridine derivatives as fungicidal compounds” (Bayer Cropscience S.A., priority 2003, dated 2010).

For one assay, the system named is Alternaria brassicae. Put plainly: In vivo test on Alternaria brassicae (leaf spot of crucifers). The note with it: Alternaria brassicae; dose 330 ppm; radish plants sprayed 24 hours before contamination; grading 6 to 7 days after contamination vs control plants; read-out: protection (good (at least 50%) to total). Here is the method: In Vivo Test on Alternaria brassicae (Leaf Spot of crucifers)
(§1) The active ingredient tested is prepared by potter homogenisation in a concentrated suspension type formulation at 100 g/l. This suspension is then diluted with water to obtain the desired active material concentration.
Radish plants (Pernot variety) in starter cups, sown on a 50/50 peat soil-pozzolana substrate and grown at 18-20° C., are treated at the cotyledon stage by spraying with the aqueous suspension described above.
(§2) Plants, used as controls, are treated with an aqueous solution not containing the active material.
After 24 hours, the plants are contaminated by spraying them with an aqueous suspension of Alternaria brassicae spores (40,000 spores per cm^3). The spores are collected from a 12-13-day-old culture.
The contaminated radish plants are incubated for 6-7 days at about 18° C., under a humid atmosphere.
Grading is carried out 6 to 7 days after the contamination, in comparison with the control plants.

The next assay has as its system Pyrenophora teres. Put plainly: In vivo test on Pyrenophora teres (barley net blotch). Conditions: Pyrenophora teres, 288 h; dose 330 ppm; barley plants sprayed 24 hours before contamination; grading 12 days after contamination vs control plants; read-out: protection (good (at least 50%) to total). As to the method:
In Vivo Test on Pyrenophora teres (Barley Net Blotch)
as §1
Barley plants (Express variety) in starter cups, sown on a 50/50 peat soil-pozzolana substrate and grown at 12° C., are treated at the 1-leaf stage (10 cm tall) by spraying with the aqueous suspension described above. Plants, used as controls, are treated with an aqueous solution not containing the active material.
After 24 hours, the plants are contaminated by spraying them with an aqueous suspension of Pyrenophora teres spores (12,000 spores per ml). The spores are collected from a 12-day-old culture The contaminated barley plants are incubated for 24 hours at about 20° C. and at 100% relative humidity, and then for 12 days at 80% relative humidity.

Assay [1] has as its system Erysiphe graminis f. sp. tritici. Put plainly: In vivo test on Erysiphe graminis f. sp. tritici (wheat powdery mildew). The note with it: Blumeria graminis, wheat plants sprayed 24 hours before contamination, grading 7 to 14 days after contamination vs control plants, read-out: protection (good (at least 50%) to total). As to the method:
In Vivo Test on Erysiphe graminis f. sp. tritici (Wheat Powdery Mildew)
as §1
Wheat plants (Audace variety) in starter cups, sown on 50/50 peat soil-pozzolana substrate and grown at 12° C., are treated at the 1-leaf stage (10 cm tall) by spraying with the aqueous suspension described above.
as §2
After 24 hours, the plants are contaminated by dusting them with Erysiphe graminis f. sp. tritici spores, the dusting being carried out using diseased plants. Grading is carried out 7 to 14 days after the contamination, in comparison with the control plants.
Under these conditions, good (at least 50%) to total protection is observed at a dose of 330 ppm with the following compounds: A-4, B-4, B-8, C-2, C-3, C-12, D-4, F-1, H-1, H-2, H-4, H-20, I-3, J-1, J-2, J-3, J-19, J-20, J-31, J-37, J-40, J-55, J-57, J-58, J-59, J-61, K-1, M-5, M-6, R-1, R-10, R-26, R-29, V-7.

The next assay has as its system Botrytis cinerea. As to the kind of experiment: In vivo test on Botrytis cinerea (cucumber grey mould). The note with it: Botrytis cinerea; dose 330 ppm; cucumber plants sprayed 24 hours before contamination; grading 5/7 days after contamination vs control plants; read-out: protection (good (at least 50%) to total). Here is the method:
In Vivo Test on Botrytis cinerea (Cucumber Grey Mould)
as §1
Cucumber plants (Marketer variety) in starter cups, sown on a 50/50 peat soil-pozzolana substrate and grown at 18-20° C., are treated at the cotyledon Z11 stage by spraying with the aqueous suspension described above. Plants, used as controls, are treated with an aqueous solution not containing the active material.
After 24 hours, the plants are contaminated by depositing drops of an aqueous suspension of Botrytis cinerea spores (150,000 spores per ml) on upper surface of the leaves. The spores are collected from a 15-day-old culture and are suspended in a nutrient solution composed of: • 20 g/L of gelatin • 50 g/L of cane sugar • 2 g/L of NH4NO3 • 1 g/L of KH2PO4
The contaminated cucumber plants are settled for 5/7 days in a climatic room at 15-11° C. (day/night) and at 80% relative humidity.
Grading is carried out 5/7 days after the contamination, in comparison with the control plants. Under these conditions, good (at least 50%) to total protection is observed at a dose of 330 ppm with the following compounds :B-7, B-8, B-13, B-14, C-3, C-12, C-13, C-14, C-15, C-16, D-4, D-5, E-4, H-1, H-2, H-4, H-7, H-9, H-22, J-1, J-2, J-3, J-19, J-31, J-32, J-33, J-34, J-35, J-37, J-39, J-43, J-44, R-1, R-10, R-23, R-24, R-26, R-31, V-1, V-8.

For the compound `O=C(NCCc1ncc(C(F)(F)F)cc1Cl)c1occc1Br` [Compound A-4], the pest or weed control at 330 ppm (in the assay on Alternaria brassicae; with Pyrenophora teres; in assay [1]) was not below 50% in each case.
Consider `Cc1oc(C(C)(C)C)cc1C(=O)NCCc1ncc(C(F)(F)F)cc1Cl` [Compound B-4], for which the pest or weed control at 330 ppm (in the assay on Alternaria brassicae; in assay [1]) was not below 50% each time.
`Cc1cc(C(=O)NCCc2ncc(C(F)(F)F)cc2Cl)c(C)o1` [Compound B-7]: the pest or weed control at 330 ppm in the assay with Alternaria brassicae, in the assay on Pyrenophora teres and in the assay on Botrytis cinerea was not below 50% in each case.
For the compound `Cc1cc(C(=O)NCCc2ncc(C(F)(F)F)cc2Cl)c(C(F)(F)F)o1` [Compound B-8], the pest or weed control at 330 ppm (with Alternaria brassicae; with Pyrenophora teres; with Botrytis cinerea; in assay [1]) was not below 50% in each case.
With `Cc1occc1C(=O)NCCc1ncc(Cl)cc1Cl` [Compound B-13], the pest or weed control at 330 ppm with Alternaria brassicae, with Pyrenophora teres and in the assay on Botrytis cinerea was not below 50% throughout.
With `O=C(NCCc1ncc(C(F)(F)F)cc1Cl)c1ccoc1I` [Compound B-14], the pest or weed control at 330 ppm in the assay with Alternaria brassicae, in the assay on Pyrenophora teres and in the assay on Botrytis cinerea was not below 50% throughout.
On to `O=C(NCCc1ncc(C(F)(F)F)cc1Cl)c1sccc1Cl` [Compound C-2], for which the pest or weed control at 330 ppm (in the assay on Alternaria brassicae; in assay [1]) was not below 50% each time.
For `Cc1ccsc1C(=O)NCCc1ncc(C(F)(F)F)cc1Cl` [Compound C-3], the pest or weed control at 330 ppm (with Alternaria brassicae; in the assay with Pyrenophora teres; in the assay on Botrytis cinerea; in assay [1]) was not below 50% throughout.
`O=C(NCCc1ncc(C(F)(F)F)cc1Cl)c1sccc1I` [Compound C-12]: the pest or weed control at 330 ppm (in the assay on Alternaria brassicae; with Pyrenophora teres; with Botrytis cinerea; in assay [1]) was not below 50% in each case.
Turning to `O=C(NCCc1ncc(Cl)cc1Cl)c1sccc1I` [Compound C-13], the pest or weed control at 330 ppm in the assay with Alternaria brassicae, in the assay on Pyrenophora teres and in the assay with Botrytis cinerea was not below 50% each time.
As to `O=C(NCCc1ncc(Cl)cc1F)c1sccc1I` [Compound C-15], the pest or weed control at 330 ppm in the assay with Pyrenophora teres and in the assay with Botrytis cinerea was not below 50% each time.
Regarding `O=C(NCCc1ncc(Cl)cc1Br)c1sccc1I` [Compound C-16], the pest or weed control at 330 ppm in the assay on Alternaria brassicae, in the assay on Pyrenophora teres and in the assay on Botrytis cinerea was not below 50% in each case.
Regarding `O=C(NCCc1ncc(C(F)(F)F)cc1Cl)c1ccsc1I` [Compound D-4], the pest or weed control at 330 ppm (in the assay with Alternaria brassicae; with Pyrenophora teres; in the assay on Botrytis cinerea; in assay [1]) was not below 50% in each case.
As for `Cc1cscc1C(=O)NCCc1ncc(C(F)(F)F)cc1Cl` [Compound D-5], the pest or weed control at 330 ppm in the assay with Alternaria brassicae, in the assay with Pyrenophora teres and in the assay on Botrytis cinerea was not below 50% in each case.
For the compound `Cn1cccc1C(=O)NCCc1ncc(C(F)(F)F)cc1Cl` [Compound F-1], the pest or weed control at 330 ppm in assay [1] is not below 50%.
On to `CC1=[SH]C(C(=O)NCCc2ncc(Cl)cc2Cl)=C(C(F)(F)F)N1` [Compound H-4], for which the pest or weed control at 330 ppm (with Alternaria brassicae; with Pyrenophora teres; with Botrytis cinerea; in assay [1]) was not below 50% in each case.
Consider `Cn1nc(C(=O)NCCc2ncc(C(F)(F)F)cc2Cl)c(Br)c1[N+](=O)[O-]` [Compound I-3], for which the pest or weed control at 330 ppm (in the assay on Alternaria brassicae; in the assay with Pyrenophora teres; in assay [1]) was not below 50% throughout.
As to `Cc1nn(C)c(F)c1C(=O)NCCc1ncc(C(F)(F)F)cc1Cl` [Compound J-1], the pest or weed control at 330 ppm (with Alternaria brassicae; in the assay with Pyrenophora teres; in the assay with Botrytis cinerea; in assay [1]) was not below 50% throughout.
For the compound `Cc1nn(C)cc1C(=O)NCCc1ncc(C(F)(F)F)cc1Cl` [Compound J-2], the pest or weed control at 330 ppm (in the assay on Alternaria brassicae; with Pyrenophora teres; with Botrytis cinerea; in assay [1]) was not below 50% in each case.
Regarding `Cn1cc(C(=O)NCCc2nc(Cl)c(Cl)cc2Cl)c(C(F)(F)F)n1` [Compound J-20], the pest or weed control at 330 ppm (with Pyrenophora teres; in assay [1]) was not below 50% each time.
With `Cc1cc(Br)cnc1CCNC(=O)c1cn(C)nc1C(F)F` [Compound J-32], the pest or weed control at 330 ppm in the assay on Alternaria brassicae, in the assay with Pyrenophora teres and with Botrytis cinerea was not below 50% each time.
As to `Cn1cc(C(=O)NCCc2ncc(Cl)cc2F)c(C(F)F)n1` [Compound J-33], the pest or weed control at 330 ppm in the assay with Alternaria brassicae, in the assay with Pyrenophora teres and with Botrytis cinerea was not below 50% in each case.
`Cn1cc(C(=O)NCCc2nc(Cl)c(Cl)cc2Cl)c(C(F)F)n1` [Compound J-34]: the pest or weed control at 330 ppm in the assay with Pyrenophora teres and in the assay on Botrytis cinerea was not below 50% in each case.
As to `Cn1cc(C(=O)NCCc2ncc(Cl)cc2Br)c(C(F)F)n1` [Compound J-39], the pest or weed control at 330 ppm in the assay on Alternaria brassicae, in the assay on Pyrenophora teres and in the assay with Botrytis cinerea was not below 50% in each case.
For the compound `Cc1c(F)c(F)nc(CCNC(=O)c2cn(C)nc2C(F)F)c1F` [Compound J-40], the pest or weed control at 330 ppm (in the assay on Pyrenophora teres; in assay [1]) was not below 50% in each case.
Turning to `Cn1cc(C(=O)NCCc2ncc(C(F)(F)F)cc2Cl)c(Cl)n1` [Compound J-57], the pest or weed control at 330 ppm (in the assay on Pyrenophora teres; in assay [1]) was not below 50% in each case.
In the case of `Cn1cc(C(=O)NCCc2ncc(C(F)(F)F)cc2Cl)c(I)n1` [Compound J-58], the pest or weed control at 330 ppm (in the assay with Pyrenophora teres; in assay [1]) was not below 50% in each case.
On to `Cc1cc(C(=O)NCCc2ncc(C(F)(F)F)cc2Cl)n(C(C)(C)C)n1` [Compound K-1], for which the pest or weed control at 330 ppm in assay [1] is not below 50%.
Regarding `Cc1onc(-c2c(Cl)cccc2Cl)c1C(=O)NCCc1ncc(C(F)(F)F)cc1Cl` [Compound M-5], the pest or weed control at 330 ppm (in the assay on Alternaria brassicae; in assay [1]) was not below 50% throughout.
With `Cc1onc(-c2c(F)cccc2Cl)c1C(=O)NCCc1ncc(C(F)(F)F)cc1Cl` [Compound M-6], the pest or weed control at 330 ppm (in the assay with Alternaria brassicae; in assay [1]) was not below 50% throughout.
As for `CON=C(C)c1cnc(CCNC(=O)c2cccnc2Cl)c(Cl)c1` [Compound R-23], the pest or weed control at 330 ppm in the assay with Alternaria brassicae, with Pyrenophora teres and with Botrytis cinerea was not below 50% in each case.
For the compound `O=C(NCCc1ncc(Cl)cc1F)c1cccnc1Cl` [Compound R-24], the pest or weed control at 330 ppm in the assay on Alternaria brassicae and in the assay on Botrytis cinerea was not below 50% in each case.
